Experimental data from ChEMBL document CHEMBL3085753, “Bridged tricyclic sesquiterpenes from the tubercle nudibranch Phyllidia coelestis Bergh” (J Nat Prod, 2013).

Experiments:
[1] = Cytotoxicity against human Gingival fibroblasts at 20 uM by SRB assay; parameters: species or system Gingival fibroblast; conditions: read-out: INH
HT-29 [2] = experiment: Antiproliferative activity against human HT-29 cells at 20 uM by SRB assay; assay type: functional
KB = experiment: Antiproliferative activity against human KB cells by SRB assay; assay type: functional, cell-based
MCF7 = experiment: Antiproliferative activity against human MCF7 cells by SRB assay; assay type: functional, cell-based
HeLa = experiment: Antiproliferative activity against human HeLa cells by SRB assay; assay type: functional, cell-based
HT-29 [3] = experiment: Antiproliferative activity against human HT-29 cells by SRB assay; assay type: functional, cell-based

CC(C)[C@@H]1C[C@@]2(C)[C@@H]3CC[C@@](C)(C[C@@H]31)[C@@H]2NC=O (relative stereo)
cytotoxicity at 20 µM [1]: 25%
inhibition at 20 µM (HT-29 [2]): 35%
IC50 (KB): 1200 nM
IC50 (MCF7): 8200 nM
IC50 (HeLa): 70 nM

CC(C)[C@@H]1C[C@@]2(C)[C@@H]3CC[C@](C)(NC=O)[C@H]2C[C@@H]31 (relative stereo)
cytotoxicity at 20 µM [1]: 65%
IC50 (HT-29 [3]): 6800 nM
IC50 (KB): 2400 nM
IC50 (MCF7): 650 nM
IC50 (HeLa): 130 nM

CC[C@@]1(O)C(=O)OCc2c1cc1n(c2=O)Cc2cc3ccccc3nc2-1 [CAMPTOTHECIN]
IC50 (HT-29 [3]): 0.7 nM
IC50 (KB): 20 nM
IC50 (MCF7): 3.3 nM
IC50 (HeLa): 130 nM
